Measured values from the supplement of paper PMC10307832.

How the values were obtained:
Assay in all cases: relative viability (nuclei count vs DMSO), 5 days (fraction); higher = more cells survive
[1] = compound: C1COCCN1CC2=CC(=O)C(=CO2)OCCCCCSC3=C4C=CC(=CC4=NC=C3)C(F)(F)F [EHT 1864] + N=C(N)NC(=N)NCCc1ccccc1 [Phenformin] (partner 250 µM)
Outline: (§1)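 Values are medians from duplicate plates. Each reflects relative viability, defined as the nuclei count of treated wells over that of vehicle wells. Lung cancer cell lines in 1536-well plates were pin-tool dosed one day after seeding with one drug alone or with a fixed anchor-drug dose plus five library-drug doses (not always all listed) in √10 steps, then fixed, stained and imaged at 4× after 5 days.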

[2] = compound: C1COCCN1CC2=CC(=O)C(=CO2)OCCCCCSC3=C4C=CC(=CC4=NC=C3)C(F)(F)F [EHT 1864] + COc1cccc2cc(-c3nc([C@H]4CC[C@H](C(=O)O)CC4)n4ncnc(N)c34)[nH]c12 [OSI-027] (partner 0.5 µM)
Outline: as §1

[3] = compound: C1COCCN1CC2=CC(=O)C(=CO2)OCCCCCSC3=C4C=CC(=CC4=NC=C3)C(F)(F)F [EHT 1864] + C[C@@H](Oc1cc(-c2cnn(C3CCNCC3)c2)cnc1N)c1c(Cl)ccc(F)c1Cl [Crizotinib] (partner 1 µM)
Outline: as §1

[4] = compound: C1COCCN1CC2=CC(=O)C(=CO2)OCCCCCSC3=C4C=CC(=CC4=NC=C3)C(F)(F)F [EHT 1864] + CC(=O)Nc1cccc(-n2c(=O)n(C3CC3)c(=O)c3c(Nc4ccc(I)cc4F)n(C)c(=O)c(C)c32)c1 [Trametinib] (partner 0.02 µM)
Outline: as §1

Cell Line	relative viability ([1]; first compound 0.04 µM)	relative viability ([1]; first compound 0.1265 µM)	relative viability ([1]; first compound 0.4 µM)	relative viability ([1]; first compound 1.265 µM)	relative viability ([1]; first compound 4 µM)	relative viability ([2]; first compound 0.04 µM)	relative viability ([2]; first compound 0.1265 µM)	relative viability ([2]; first compound 0.4 µM)	relative viability ([2]; first compound 1.265 µM)	relative viability ([2]; first compound 4 µM)	relative viability ([3]; first compound 0.04 µM)	relative viability ([3]; first compound 0.4 µM)	relative viability ([3]; first compound 1.265 µM)	relative viability ([3]; first compound 4 µM)	relative viability ([4]; first compound 0.04 µM)	relative viability ([4]; first compound 0.1265 µM)	relative viability ([4]; first compound 0.4 µM)	relative viability ([4]; first compound 1.265 µM)	relative viability ([4]; first compound 4 µM)	relative viability ([3]; first compound 0.1265 µM)
HCC-366	0.616	0.538	0.593	0.511	0.585	0.805	0.603	0.939	0.872	0.935	0.434	0.423	0.554	0.487	0.38	0.3	0.318	0.413	0.285	–
HCC-827	0.407	0.347	0.396	0.432	0.329	0.733	0.646	0.732	0.7	0.657	0.963	0.931	0.844	0.921	0.618	0.611	0.597	0.555	0.548	0.759
HOP-62	0.665	–	0.615	0.654	0.718	0.783	–	0.851	0.825	0.907	0.944	0.952	0.784	0.996	0.4	–	0.362	0.38	0.415	–
IA-LM	–	–	–	–	–	–	–	–	–	–	1.01	0.754	–	0.684	–	–	–	–	–	–
LC-2-ad	0.574	–	0.632	0.64	0.696	0.808	–	1	0.98	0.788	0.493	0.432	0.526	0.564	0.91	0.816	0.895	0.868	0.79	0.454
LCLC-97TM1	0.424	0.364	0.444	0.415	0.414	0.429	0.583	0.339	0.568	0.517	0.399	0.42	0.442	0.285	0.2	0.178	0.193	0.183	0.236	–
LCLC-103H	0.356	0.271	0.357	0.33	0.391	0.454	0.365	0.461	0.44	0.413	1.15	1.02	1.05	1.01	0.701	0.612	0.655	0.588	0.55	1.03
LK-2	0.539	–	0.591	0.369	0.373	0.243	0.154	0.227	0.188	0.187	0.232	0.225	0.241	0.221	0.673	0.48	0.719	0.596	1.02	0.23
LOU-NH91	0.783	0.635	0.859	0.738	0.66	0.721	0.572	0.768	0.777	0.66	0.764	0.741	0.733	0.758	0.757	0.747	0.802	0.761	0.74	0.73
LU99A	0.811	0.557	0.821	0.857	0.808	0.354	0.212	0.327	0.29	0.278	0.604	0.575	0.593	0.537	0.531	0.428	0.487	0.452	0.565	0.489
LXF-289	0.517	0.463	0.507	0.549	0.547	0.848	0.738	0.769	0.775	0.713	0.802	0.752	0.706	0.688	0.676	0.609	0.615	0.616	0.657	0.791
NCI-H23	0.778	0.477	0.784	0.604	0.775	0.511	0.352	0.673	0.523	0.563	0.488	0.513	0.496	0.5	0.347	0.413	0.31	0.396	0.419	–
NCI-H522	0.538	0.613	0.605	0.571	0.4	0.818	0.631	0.696	0.662	0.652	–	–	–	–	0.756	0.917	0.836	0.722	0.756	–
NCI-H1395	0.518	0.422	0.45	0.474	0.431	0.649	0.515	0.683	0.621	0.696	–	–	–	–	1.07	0.908	0.977	0.978	1.08	–
NCI-H1563	0.672	0.64	0.675	0.677	0.685	0.735	0.796	0.763	0.701	0.699	0.89	0.916	0.827	0.656	–	–	–	–	–	0.883
NCI-H1648	–	–	–	–	–	0.273	0.29	0.242	0.23	0.255	–	–	–	–	0.545	–	0.44	0.4	0.607	–
NCI-H1703	–	–	–	–	–	–	–	–	–	–	0.69	0.545	0.598	0.487	–	–	–	–	–	0.534
NCI-H1793	0.301	–	0.383	–	0.392	0.226	–	0.313	–	0.262	–	–	–	–	0.37	0.356	0.465	0.428	0.434	–
NCI-H2342	0.546	0.52	0.621	0.523	0.678	0.529	0.555	0.576	0.573	0.636	–	–	–	–	0.71	0.681	0.759	0.874	0.935	–
SW 900	0.435	–	0.569	0.521	0.597	0.555	–	0.548	0.583	0.483	–	–	–	–	0.686	–	0.77	0.796	0.758	–
